Assay [1] deals with Geranylgeranyl transferase type I (Candida albicans). The experiment in a line: Tested for the inhibition of Candida GGTase I in Candida albicans at concentration of 3 uM.
Assay [2] concerns the target T1, Geranylgeranyl transferase type I (Homo sapiens, UniProt P49354+P53609). The experiment in a line: Inhibition of human geranylgeranyl transferase I. The class given is protein-complex assay.
For assay [3], the system named is Candida albicans. The experiment in a line: Antifungal activity against Candida albicans. The class given is functional.
Assay [4] has as its target Protein farnesyltransferase (Homo sapiens, UniProt P49354+P49356). The experiment in a line: Inhibition of human farnesyl transferase. The class given is protein-complex assay.
Assay [5] has as its target Geranylgeranyl transferase type I (Candida albicans). The experiment in a line: Inhibition of Candida geranylgeranyl transferase I.
The target is the same in assay [6]. The experiment in a line: Inhibition of Candida geranylgeranyl transferase I […].
Assay [7] shares this target. The experiment in a line: Tested for the inhibition of Candida GGTase I in Candida albicans.
Assay [8] concerns the target T1, Geranylgeranyl transferase type I. The experiment in a line: Tested for the selectivity against human geranylgeranyl transferase I. The class given is protein-complex assay.

“And” between values parts separate entries of the source, which are not always exact repeats. Identical values can stand only once.

Turning to `NC(=O)[C@@H](Cc1c[nH]cn1)NC(=O)[C@@H](Cc1cccc2ccccc12)NC(=O)C1Cc2ccccc2C1`, the inhibition in assay [1] came out at 48%.

As for `O=C(OCCCS)C(Cc1ccc2ccccc2c1)NC(=O)C1COc2ccccc2O1` (configuration not stated), the inhibition in assay [1] is 25%.

As to `O=C(OCCCS)C(CC1CCCCC1)NC(=O)C1COc2ccccc2O1` (configuration not stated), the inhibition in assay [1] is less than 10%.

Consider `CC(O)C(NC(=O)C1Cc2ccccc2C1)C(=O)OCCCS` (configuration not stated), for which, in assay [1], the inhibition is less than 10%.

In the case of `O=C(OC(CS)C(O)CS)c1csc(C2COc3ccccc3O2)n1` (configuration not stated), the IC50 in assay [2] is 40 µM; in assay [4], greater than 1 mM; in assay [5] it was 17 nM; in assay [6] it was 17 nM. In assay [3], this compound yielded a minimal inhibitory concentration (MIC) greater than 120 µg/mL.

In assay [1], `O=C(O)CCC(NC(=O)C1COc2ccccc2O1)C(=O)OCCCS` (configuration not stated) had an inhibition of less than 10%.

In the case of `O=C(CNC(=O)C1COc2ccccc2O1)OCCCS` (configuration not stated), the inhibition in assay [1] was less than 10%.

Regarding `O=C(NC(C(=O)OCCCS)c1cccc2ccccc12)C1COc2ccccc2O1` (configuration not stated), in assay [1], the inhibition stood at 89%.

`O=C(N[C@H](Cc1cccc2ccccc12)C(=O)NCCc1cnc[nH]1)C1Cc2ccccc2C1` registered an IC50 in assay [7] of 350 nM.

In assay [7], `O=C(N[C@H](Cc1cccc2ccccc12)C(=O)OCCCS)C1Cc2ccccc2C1` displayed an IC50 of 7.3 nM.

As to `O=C(NC(CC1CCCCC1)C(=O)OCCCS)C1Cc2ccccc2C1` (configuration not stated), the inhibition in assay [1] was less than 10%.

In the case of `O=C(O)CCC(NC(=O)C1Cc2ccccc2C1)C(=O)OCCCS` (configuration not stated), the inhibition in assay [1] is less than 10%.

For `O=C(NCCCS)c1csc(C2COc3ccccc3O2)n1` (configuration not stated), in assay [7], the half-inhibitory concentration (IC50) came to 780 nM.

`O=C(OCCCS)c1csc(C2COc3ccccc3O2)n1` (configuration not stated) registered an IC50 in assay [6] of 240 nM.

The compound `O=C(NC(C(=O)OCCCS)c1cccc2ccccc12)C1Cc2ccccc2C1` (configuration not stated) yielded an inhibition in assay [1] of 90%.

Turning to `O=C(N[C@H](Cc1ccc(Cl)c(Cl)c1)C(=O)NCCc1c[nH]cn1)C1c2ccccc2Oc2ccccc21`, the Selectivity in assay [8] was greater than 1000. The compound further registered an IC50 in assay [7] of 10 nM.

Compound `CC(O)C(NC(=O)C1COc2ccccc2O1)C(=O)OCCCS` (configuration not stated) displayed an inhibition in assay [1] of less than 10%.

Compound `O=C(OCCS)c1csc(C2COc3ccccc3O2)n1` (configuration not stated) returned an IC50 in assay [6] of 1300 nM.

In assay [1], `O=C(CNC(=O)C1Cc2ccccc2C1)OCCCS` yielded an inhibition of less than 10%.

`O=C(NC(Cc1ccccc1)C(=O)OCCCS)C1Cc2ccccc2C1` (configuration not stated) showed an inhibition in assay [1] of 63%.

As to `O=C(NC(Cc1ccc2ccccc2c1)C(=O)OCCCS)C1Cc2ccccc2C1` (configuration not stated), in assay [1], the inhibition turned out to be 36%.

In the case of `NC(=O)[C@@H](Cc1c[nH]cn1)NC(=O)[C@@H](Cc1cccc2ccccc12)NC(=O)C1c2ccccc2-c2ccccc21`, the inhibition in assay [1] was 71% and 96%.

With `NC(=O)[C@@H](Cc1c[nH]cn1)NC(=O)[C@@H](Cc1cccc2ccccc12)NC(=O)C1c2ccccc2Oc2ccccc21`, the inhibition in assay [1] stood at 97%.

In turn, `O=C(OCC(O)CS)c1csc(C2COc3ccccc3O2)n1` (configuration not stated) returned a half-inhibitory concentration (IC50) in assay [7] of 31 nM.

As to `O=C(NC(Cc1c[nH]c2ccccc12)C(=O)OCCCS)C1Cc2ccccc2C1` (configuration not stated), the inhibition in assay [1] was found to be 72%.

`O=C(OCCCS)C(Cc1ccccc1)NC(=O)C1COc2ccccc2O1` (configuration not stated) displayed an inhibition in assay [1] of 55%.

`O=C(OCCCS)C(Cc1c[nH]c2ccccc12)NC(=O)C1COc2ccccc2O1` (configuration not stated) returned an inhibition in assay [1] of 72%.

What is called inhibition is how much of the control response was suppressed. The low end stands for a response near the control, the high end for a response far below the control. For orientation: IC50 means the concentration at which inhibition is half-maximal. High values mean weaker potency, low ones greater potency. Broadly, the MIC is the lowest concentration that inhibits growth of the organism. Read a low MIC as inhibition by little substance.

The record behind these values is ChEMBL document CHEMBL1136060, “A new class of type I protein geranylgeranyltransferase (GGTase I) inhibitor” (Bioorg Med Chem Lett, 2002).
